These results are taken from patent US12491185B2, “Inhibitors of mPTP” (NRG Therapeutics Ltd, priority 2023, dated 2025).

Molecules are shown by their SMILES.

This experiment deals with mPTP. The experiment in a line: mPTP activity (Ca2+ retention) assay in isolated rat liver mitochondria. The class given is biochemical. The conditions noted are these: examples tested by different contract research organisations, believed comparable. The source says:
Pharmacological inhibition or modulation of the mPTP can be measured in well characterised ‘Ca^2+ retention’ assays performed in isolated mitochondria. In vitro, isolated mitochondria rapidly sequester exogenous Ca^2+ until the intramitochondrial Ca^2+ concentration reaches the threshold for mPTP activation. Once the pore is activated, mitochondrial integrity is compromised and the stored Ca^2+ is released. The distribution of Ca^2+ between extra- and intra-mitochondrial compartments can be measured in real time with the use of membrane-impermeant Ca^2+ sensitive fluorescent dyes. Depending on the configuration of the assay, inhibition or modulation of the mPTP either delays the opening of the pore or increases the concentration of Ca^2+ required to induce mPTP opening.
MPTP activity was measured in mitochondria freshly isolated from female Sprague Dawley (250 to 300 gram) rat livers using the following method. Cervical dislocation was performed on the rat. The liver was then perfused in-situ with −40 ml cold Dulbecco's Phosphate Buffered Saline (DPBS) prior to dissection and transferred into 30 ml Isolation Buffer (250 mM Sucrose, 10 mM KCl, 1 mM EGTA, 1 mM EDTA, 25 mM HEPES, adjusted to pH 7.5 with 1M NaOH). Each lobe of the liver was then removed from the buffer, minced using tweezers and a scalpel into −5 mm pieces then transferred into a 50 ml Potterton dounce homogenization tube on ice containing 30 ml ice-cold centrifugation buffer (300 mM Trehalose, 25 mM HEPES, 1 mM EGTA, 1 mM EDTA, 10 mM KCl, adjusted to pH 7.5 with 1M NaOH and supplemented with 0.1% bovine serum albumin (BSA) and complete protease inhibitor cocktail (one tablet of inhibitor per 50 mls of buffer). Homogenisation was carried out using a teflon pestle at 1800 rpm. The slurry was centrifuged at 800 g for 10 min at 4° C., then the supernatant centrifuged at 10,000 g for 10 min. The pellet was washed once with FLIPR assay buffer (75 mM Mannitol, 25 mM Sucrose, 5 mM Potassium Phosphate Monobasic, 20 mM Tris base, 100 mM KCl, 0.1% BSA adjusted to pH 7.4 with 5M HCl) centrifuged again, then resuspended in FLIPR assay buffer to a concentration of 8.8 mg/ml protein.
Tested compounds (10 mM stock in DMSO) were serially diluted in DMSO in half log steps to generate 10 test concentrations (final concentrations in assay 30 μM to 1 nM). An intermediate dilution of 5 μl DMSO samples into 247 μl FLIPR assay buffer was carried out prior to transfer of 5 μl into duplicate wells of a 384 well polypropylene assay plate. Control wells were 0.5% (v/v) DMSO and 5 μM cyclosporin A.
A stock mitochondria/Fluo5N assay solution was prepared in 5.6 ml FLIPR assay buffer (at RT) supplemented with succinate disodium salt (10 mM), rotenone (1 μM), Fluo5N pentapotassium salt (2 μM) and 1 ml mitochondria suspension, then transferred (15 μl) into the assay plate containing test compounds and incubated for 10 min at RT. Assay plates were processed for fluorescence detection on either a FLIPR Tetra (Molecular Devices) or CLARIOstar (BMG) plate reader. For kinetic fluorescence detection on the FLIPR, dye fluorescence was measured every 3 sec for a total of 10 min. After 12 sec, a 2.5 μl bolus of CaCl2 (75 μM) was added from a source plate containing 675 μM CaCl2 in FLIPR assay buffer. Alternatively, the 2.5 μl addition of CaCl2 was performed using a Viaflow 384, plates were incubated at RT for 10 min, and dye fluorescence measured after 10 min on the CLARIOstar plate reader. pIC50 values for tested compounds were calculated using the fluorescence value collected at the 10 min timepoint on either plate reader, with % inhibition calculated using the DMSO control and cyclosporin A values as 0 and 100% respectively.
On to `CC[C@@H](Cc1ccc(F)cc1F)C(C)NC(=O)c1nn(C)c(=O)[nH]1` (stereo partly drawn) [Example 141, N-[(3S)-3-[(2,4-difluorophenyl)methyl]pentan-2-yl]-1-methyl-5-oxo-4H-1,2,4-triazole-3-carboxamide], for which the “mPTP Rat liver pIC50” value is on record as 6.44.

On to `O=C(NC[C@H](Cc1ccc(F)c(F)c1)C1CC1)c1cncc(=O)[nH]1` [Example 143], for which the “mPTP Rat liver pIC50” value worked out at 6.47.

Consider `CCC(CNC(=O)c1nn(C)c(=O)[nH]1)Cc1ccc2cnccc2c1` (stereo not shown) [Example 144], for which the “mPTP Rat liver pIC50” value is recorded as below 4.57.

Take `O=C(NCC1(Cc2ccc(F)cc2F)CCC1)c1cnc(=O)[nH]c1` [Example 145]: the “mPTP Rat liver pIC50” value is on record as below 4.57.

On to `O=C(NC[C@H](Cc1ccc(F)cc1F)C1CC1)c1cnc(=O)[nH]c1` [Example 147], for which the “mPTP Rat liver pIC50” value is listed as below 4.57.

For `O=C(NCC1(Cc2cc(F)c(F)cc2F)CCC1)c1cncc(=O)[nH]1` [Example 148], the “mPTP Rat liver pIC50” value amounted to 6.58.

With `O=C(NC[C@H](Cc1ccc(F)c(F)c1)C1CC1)c1cncc(=O)[nH]1` [Example 151], the “mPTP Rat liver pIC50” value is recorded as 5.88.

As to `O=C(NC[C@H](Cc1ccc(F)cc1F)C1CC1)c1cncc(=O)[nH]1` [Example 154], the “mPTP Rat liver pIC50” value is listed as 5.54.

Regarding `O=C(NC[C@H](Cc1cc(F)ccc1F)C1CC1)c1ccc(=O)[nH]n1` [Example 155], the “mPTP Rat liver pIC50” value is listed as 5.33.

For the compound `O=C(NC[C@H](Cc1cc(F)ccc1F)C1CC1)c1cncc(=O)[nH]1` [Example 158], the “mPTP Rat liver pIC50” value was 5.33.

`CCc1cccc(CC2(CNC(=O)c3nn(C)c(=O)[nH]3)CCC2)c1` [Example 162, N-((1-(3-ethylbenzyl)cyclobutyl)methyl)-1-methyl-5-oxo-4,5-dihydro-1H-1,2,4-triazole-3-carboxamide]: the “mPTP Rat liver pIC50” value stood at 5.26.

For the compound `CC[C@H](CNC(=O)c1nccc(=O)[nH]1)Cc1ccc(F)cc1F` [Example 163], the “mPTP Rat liver pIC50” value was 5.38.

As to `CCC(CNC(=O)c1nn(C)c(=O)[nH]1)Cc1ccc(F)c(F)c1` (stereo not shown) [Example 164], the “mPTP Rat liver pIC50” value came to 6.56.

For the compound `O=C(NCC1(Cc2cc(F)cc(F)c2)CCC1)c1cncc(=O)[nH]1` [Example 165], the “mPTP Rat liver pIC50” value is below 4.57.

Regarding `Cc1cc(F)ccc1CC1(CNC(=O)c2cncc(=O)[nH]2)CCC1` [Example 166], the “mPTP Rat liver pIC50” value stood at 5.7.

As to `O=C(NCC1(Cc2cccc(F)c2)CCC1)c1cnn[nH]1` [Example 167], the “mPTP Rat liver pIC50” value is reported as below 4.57.

As to `Cc1cc(F)ccc1CC1(CNC(=O)c2nccc(=O)[nH]2)CCC1` [Example 168, N-((1-(4-fluoro-2-methylbenzyl)cyclobutyl)methyl)-6-oxo-1,6-dihydropyrimidine-2-carboxamide], the “mPTP Rat liver pIC50” value is reported as 6.07.

As for `CCC(Cc1ccc(F)cc1F)CN(C)C(=O)c1nccc(=O)[nH]1` (stereo not shown) [Example 169], the “mPTP Rat liver pIC50” value is on record as below 4.57.

On to `O=C(NCC1(Cc2ccc(F)cc2F)CCC1)c1cnn[nH]1` [Example 170], for which the “mPTP Rat liver pIC50” value is given as 5.65.

For the compound `O=C(NCC1(Cc2cccc(F)c2)CCC1)c1nnc[nH]1` [Example 171], the “mPTP Rat liver pIC50” value worked out at 4.87.

On to `CCC(CNC(=O)c1nn(C)c(=O)[nH]1)Cc1ccc2c(c1)CCO2` (stereo not shown) [Example 172], for which the “mPTP Rat liver pIC50” value amounted to 5.41.

For the compound `Cn1c(C(=O)NCC2(Cc3ccc(F)cc3F)CCC2)n[nH]c1=O` [Example 173, N-((1-(2,4-difluorobenzyl)cyclobutyl)methyl)-4-methyl-5-oxo-4,5-dihydro-1H-1,2,4-triazole-3-carboxamide], the “mPTP Rat liver pIC50” value was below 4.57.

Regarding `O=C(NCC1(Cc2cc(F)cc(F)c2)CCC1)c1ccc(=O)[nH]n1` [Example 176], the “mPTP Rat liver pIC50” value was 4.8.

With `COCc1ccccc1CC1(CNC(=O)c2nn(C)c(=O)[nH]2)CCC1` [Example 178], the “mPTP Rat liver pIC50” value was below 4.57.

On to `CCC(Cc1ccc(F)cc1F)CN(C)C(=O)c1nn(C)c(=O)[nH]1` (stereo not shown) [Example 179, N-(2-(2,4-difluorobenzyl)butyl)-N,1-dimethyl-5-oxo-4,5-dihydro-1H-1,2,4-triazole-3-carboxamide], for which the “mPTP Rat liver pIC50” value was below 4.57.

In the case of `O=C(NCC1(Cc2ccc(F)cc2F)CCC1)c1nnc[nH]1` [Example 180], the “mPTP Rat liver pIC50” value is reported as 5.14.

For the compound `CSc1cccc(CC2(CNC(=O)c3nn(C)c(=O)[nH]3)CCC2)c1` [Example 182], the “mPTP Rat liver pIC50” value worked out at 5.02.

For the compound `O=C(NC[C@H](Cc1c(F)cc(F)cc1F)C1CC1)c1nccc(=O)[nH]1` [Example 183, (R)—N-(2-cyclopropyl-3-(2,4,6-trifluorophenyl)propyl)-6-oxo-1,6-dihydropyrimidine-2-carboxamide], the “mPTP Rat liver pIC50” value stood at 5.4.

As for `O=C(NCC1(Cc2ccc(F)cc2F)CCOCC1)c1cc(=O)[nH]o1` [Example 184], the “mPTP Rat liver pIC50” value is given as 6.14.

On to `O=C(NCC1(Cc2ccc(F)cc2F)CCOCC1)c1nccc(=O)[nH]1` [Example 185], for which the “mPTP Rat liver pIC50” value was 6.34.

On to `O=C(NCC1(Cc2ccc(F)cc2F)CC12CC2)c1nccc(=O)[nH]1` (stereo not shown) [Example 186], for which the “mPTP Rat liver pIC50” value turned out to be 6.58.

As for `CC(CNC(=O)c1nccc(=O)[nH]1)(Cc1ccc(F)cc1F)C1CC1` (stereo not shown) [Example 187], the “mPTP Rat liver pIC50” value stood at 6.53.

For the compound `CC(c1ccc(F)cc1F)[C@@H](CNC(=O)c1nccc(=O)[nH]1)C1CC1` (stereo partly drawn) [Example 188, N-[(2S)-2-Cyclopropyl-3-(2,4-difluorophenyl)butyl]-4-oxo-3H-pyrimidine-2-carboxamide], the “mPTP Rat liver pIC50” value is listed as 5.42.

Take `O=C(NC[C@H](Cc1c(F)cccc1F)C1CC1)c1nccc(=O)[nH]1` [Example 189]: the “mPTP Rat liver pIC50” value worked out at 5.26.

Take `O=C(NC[C@H](Cc1ccc(F)cc1F)C1CC1)c1ncc(F)c(=O)[nH]1` [Example 192]: the “mPTP Rat liver pIC50” value turned out to be 5.72.

Take `Cn1nc(C(=O)NCC(Cc2ccc(F)cc2Cl)C2CC2)[nH]c1=O` (stereo not shown) [Example 193, N-(3-(2-chloro-4-fluorophenyl)-2-cyclopropylpropyl)-1-methyl-5-oxo-4,5-dihydro-1H-1,2,4-triazole-3-carboxamide]: the “mPTP Rat liver pIC50” value came out at 6.36.

Turning to `CC(NC(=O)c1nn(C)c(=O)[nH]1)[C@H](Cc1ccc(F)cc1F)C1CC1` (stereo partly shown) [Example 196], the “mPTP Rat liver pIC50” value is 6.56.

In the case of `Cn1nc(C(=O)NCC2(Cc3ccc(F)cc3F)CCC(F)(F)CC2)[nH]c1=O` [Example 197], the “mPTP Rat liver pIC50” value was below 4.57.

On to `O=C(NCC1(Cc2ccc(F)cc2F)CCC1)c1nncc(=O)[nH]1` [Example 198, N-((1-(2,4-difluorobenzyl)cyclobutyl)methyl)-5-oxo-4,5-dihydro-1,2,4-triazine-3-carboxamide], for which the “mPTP Rat liver pIC50” value was found to be 5.95.

For the compound `CCC(CC)(CNC(=O)c1nn(C)c(=O)[nH]1)Cc1ccc(F)cc1F` [Example 199], the “mPTP Rat liver pIC50” value came out at 6.55.

On to `Cc1cc(=O)[nH]c(C(=O)NCC2(Cc3ccc(F)cc3F)CCC2)n1` [Example 200], for which the “mPTP Rat liver pIC50” value was below 4.57.

On to `O=C(NCC1(Cc2ccc(F)cc2F)CCC1)c1cc(=O)[nH]s1` [Example 201], for which the “mPTP Rat liver pIC50” value is recorded as below 4.57.

For the compound `O=C(NCC1(Cc2ccc(F)c(F)c2)CCC1)c1noc(=O)[nH]1` [Example 202, N-((1-(3,4-difluorobenzyl)cyclobutyl)methyl)-5-oxo-4,5-dihydro-1,2,4-oxadiazole-3-carboxamide], the “mPTP Rat liver pIC50” value is on record as 5.61.

On to `O=C(NC[C@H](Cc1ccc(F)cc1F)C1CC1)c1noc(=O)[nH]1` [Example 204], for which the “mPTP Rat liver pIC50” value is on record as 6.53.

As for `COCc1nnc(C(=O)NCC2(Cc3ccc(F)cc3F)CCC2)[nH]1` [Example 206], the “mPTP Rat liver pIC50” value was determined as 5.24.

For the compound `Cn1nc(C(=O)NCC2(Cc3ccc(F)cc3F)CCC2)nc1CO` [Example 208], the “mPTP Rat liver pIC50” value is below 4.57.
